Type in all cases: cell-based, human
For one data set, the system named is U‐251 MG cells. Kind of data set: MTT cell viability assay, U‐251 MG glioblastoma cells, 5 days treatment. The conditions noted are these: for IC50: 5 days treatment, 100–0 µM; for cytotoxicity / biological effect on U‐251 MG, in words: 5 days, up to 100 µM. The method, then: (§1) Dose–response curves for each of the pyrazolo[1,5‐α]pyrimidinones were performed to determine the cytotoxic effect of the compounds on a cancerous, U‐251 MG cell line and a noncancerous, HEK293 cell line. The synthesized pyrazolopyrimidinones were dissolved in DMSO (Merck) to obtain a stock solution which was stored at −20 °C. […] U‐251 MG and HEK293 cells were seeded at a density of 2 x 10^3 cells per well (100 μL) in a 96‐well plate (Sarstedt) and incubated for 24 h prior to each treatment to allow for cell adhesion. The stock solution was diluted in media to working concentrations of 100, 75, 50, 25, 10, 5, and 0.1 μM. Media on the seeded cells was then replaced with the working concentrations of the compound or the controls in a 96‐well plate (100 μL). The treated plate was incubated at 37 °C in the humidified incubator for 5 days. Cell viability was assessed after 5 days using the MTT assay. Dose–response curves were then plotted relative to the positive control whereby cells were treated 20% DMSO and a negative control whereby cells were maintained in fresh DMEM.
(§2) To determine the extent of the cytotoxic effect of the pyrazolopyrimidinone on each cell line, the cell viability at each working concentration was determined via the MTT assay (Merck). The working solution of MTT used was 5 mg MTT per 1 ml of PBS diluted in 9 ml of media. After 5 days of incubation, the treatment was removed from each of the wells and replaced with 100 μL of fresh MTT solution. The plate was then incubated for 3 h at 37 °C in a humidified incubator to allow the reduction of the yellow tetrazolium salt to purple formazan crystals. After the incubation, the MTT solution was removed from the wells and replaced with 100 μL of DMSO for 15 min to dissolve the formazan crystals. The absorbance was read at 570 nm using a spectrophotometric microplate reader (Thermo Fisher Scientific).
(§3) Each of the experiments was performed at least three independent times, with a minimum of six technical replicates per experiment. Statistical analysis was carried out using GraphPad Prism version 8.0.0 (GraphPad Softwares, Inc.). Curve fitting and the IC50 values were obtained through the dose–response curves using nonlinear regression. To determine if the dose–response curves were statistically distinct and not overlapping, extra sum‐of‐squares F‐test was used, and a p‐value was obtained. The effect of compound treatment on both cell lines was statistically compared via two‐way ANOVA with Tukey's post‐test. The CytExpert (Beckman Coulter) software was used for flow cytometry analysis. Graphs represent the % dead cells whereby the total number of dead cells was divided by the total cell population. The statistical significance of the flow cytometry results was determined via one‐way analysis of variance (ANOVA) with Dunnett's T3 multiple comparison post‐test. Data is presented as the mean ± standard error of mean (SEM). Summary of results from statistical analysis reports p‐values as follows: ≥0.05 (ns), 0.01–0.05 (*), 0.001–0.01 (**), […], and <0.0001(****).

Another data set deals with HEK293 cells. Kind of data set: MTT cell viability assay, noncancerous HEK293 cells, 5 days treatment. Conditions: for IC50: 5 days treatment, 100–0 µM; for cytotoxicity / biological response in HEK293, in words: 5 days, up to 100 µM, threshold 50 µM. The method, then:
as §1, §2, §3
(In general: Tetrazolium dyes change colour on reduction, which living cells bring about.)

The subject of data set [1] is U‐251 MG and HEK293 cells. Kind of data set: Statistical comparison of dose–response in U‐251 MG versus HEK293 (selectivity, HIT criteria). Conditions: for Selectivity for cancer cells with IC50 < 50 [µM]‐Yes/No: HEK293 IC50 higher than U‐251 MG IC50, U‐251 MG IC50 below 50 µM; for All criteria met -Yes/No: HIT criteria and statistical testing, Table S1.

What is called IC50 is the concentration needed to halve the response being measured. Higher therefore signals weaker potency.

Take `CC(C)c1cc2[nH]c(-c3cc(C(F)(F)F)cc(C(F)(F)F)c3)cc(=O)n2n1` [Compound 4]: the IC50 was 14 µM in the data set on U‐251 MG cells; under 20 µM in the data set on U‐251 MG cells (Homo sapiens, U-251, 120 h); 7.38 µM in the data set with HEK293 cells (Homo sapiens, HEK293, 120 h). Further, the “Selectivity for cancer cells with IC50 < 50 [µM]‐Yes/No” value (“Selectivity … [µM]‐Yes/No” for short) in data set [1] was “No”.
In the data set on U‐251 MG cells (Homo sapiens, U-251, 120 h), `CC(C)(C)c1cc2[nH]c(-c3ccccc3)cc(=O)n2n1` [Compound 17] displayed a 50% inhibitory concentration (IC50) of 76.6 µM. In addition, the “All criteria met -Yes/No” value in data set [1] is recorded as “No”.
`O=c1cc(-c2cc(C(F)(F)F)cc(C(F)(F)F)c2)[nH]c2cc(-c3cccc(C(F)(F)F)c3)nn12` [Compound 20]: in the data set on U‐251 MG cells (Homo sapiens, U-251, 120 h), half-maximal inhibition (IC50) required 31 µM. Further, in data set [1], the “All criteria met -Yes/No” value was “No”.
As to `O=c1cc(-c2cc(C(F)(F)F)cc(C(F)(F)F)c2)[nH]c2cc(-c3ccc(F)cc3)nn12` [Compound 6], the IC50 worked out at 52.2 µM in the data set on U‐251 MG cells (Homo sapiens, U-251, 120 h) and 68.2 µM with HEK293 cells (Homo sapiens, HEK293, 120 h). Further, the “Selectivity … [µM]‐Yes/No” value in data set [1] is reported as “No”.
`Cc1cc(=O)n2nc(C(C)C)cc2[nH]1` [Compound 1]: the “Selectivity … [µM]‐Yes/No” value in data set [1] is “No”.
With `CC(C)c1cc2[nH]c(-c3ccccc3)cc(=O)n2n1` [Compound 2], the IC50 with U‐251 MG cells was 20.6 µM; in the data set with U‐251 MG cells (Homo sapiens, U-251, 120 h), under 20 µM; in the data set with HEK293 cells (Homo sapiens, HEK293, 120 h), 9.8 µM. Further, the “Selectivity … [µM]‐Yes/No” value in data set [1] is recorded as “No”.
As to `Cc1cc2[nH]c(C)cc(=O)n2n1` [Compound 16], the “All criteria met -Yes/No” value in data set [1] is on record as “No”.
For `COc1ccc(-c2cc3[nH]c(-c4cc(C(F)(F)F)cc(C(F)(F)F)c4)cc(=O)n3n2)cc1` [Compound 11], the IC50 with U‐251 MG cells (Homo sapiens, U-251, 120 h) was 23.5 µM; in the data set with HEK293 cells, 29.5 µM; in the data set with HEK293 cells (Homo sapiens, HEK293, 120 h) it was under 30 µM. In addition, in data set [1], the “Selectivity … [µM]‐Yes/No” value is “No”. Also, in data set [1], the “All criteria met -Yes/No” value is on record as “No”.
`CCc1cc(=O)n2nc(C(C)C)cc2[nH]1` [Compound 19] came in with an IC50 in the data set with U‐251 MG cells (Homo sapiens, U-251, 120 h) of 154 µM. Further, the “All criteria met -Yes/No” value in data set [1] was “No”.
Consider `O=c1cc(-c2cc(C(F)(F)F)cc(C(F)(F)F)c2)[nH]c2cc(-c3cccc([N+](=O)[O-])c3)nn12` [Compound 23], for which the IC50 with U‐251 MG cells is 23.2 µM; in the data set with U‐251 MG cells (Homo sapiens, U-251, 120 h) it was 29.6 µM; with HEK293 cells (Homo sapiens, HEK293, 120 h) it was 60.3 µM. The “Selectivity … [µM]‐Yes/No” value in data set [1] is listed as “Yes”.
For `Cc1cc(C)cc(-c2cc(=O)n3nc(C(C)C)cc3[nH]2)c1` [Compound 3], 6.52 µM corresponded to half-maximal inhibition in the data set with HEK293 cells (Homo sapiens, HEK293, 120 h) (IC50). In addition, in data set [1], the “Selectivity … [µM]‐Yes/No” value is “No”.
Consider `Cc1cc(=O)n2nc(-c3ccccc3)cc2[nH]1` [Compound 14], for which the “cytotoxicity / biological effect on U‐251 MG, in words” value in the data set with U‐251 MG cells is “did not elicit a biological effect”. Further, in the data set on U‐251 MG cells (Homo sapiens, U-251, 120 h), half-maximal inhibition (IC50) required 81.5 µM. For the same molecule, the “cytotoxicity / biological response in HEK293, in words” value (“cytotoxicity / biological response” below) with HEK293 cells is “did not elicit a biological effect”. For the same molecule, the “All criteria met -Yes/No” value in data set [1] is on record as “No”.
Take `O=c1cc(-c2cc(C(F)(F)F)cc(C(F)(F)F)c2)[nH]c2cc(-c3ccco3)nn12` [Compound 13]: the “cytotoxicity / biological effect on U‐251 MG, in words” value with U‐251 MG cells is recorded as “no cytotoxicity”. Also, the “cytotoxicity / biological response” value in the data set on HEK293 cells is given as “no cytotoxicity”. For the same molecule, in data set [1], the “All criteria met -Yes/No” value is given as “No”.
With `CC(C)c1cc2[nH]c(C(C)C)cc(=O)n2n1` [Compound 18], in the data set on U‐251 MG cells (Homo sapiens, U-251, 120 h), the IC50 came to 170 µM. In addition, in the data set on HEK293 cells (Homo sapiens, HEK293, 120 h), half-maximal inhibition (IC50) required 118 µM. Besides, in data set [1], the “Selectivity … [µM]‐Yes/No” value was “No” and the “All criteria met -Yes/No” value is listed as “No”.
Regarding `O=c1cc(-c2cc(C(F)(F)F)cc(C(F)(F)F)c2)[nH]c2cc(-c3cccc(Cl)c3)nn12` [Compound 12], the IC50 is 21.7 µM with U‐251 MG cells (Homo sapiens, U-251, 120 h); 29.5 µM in the data set with HEK293 cells; under 30 µM with HEK293 cells (Homo sapiens, HEK293, 120 h). In data set [1], the “All criteria met -Yes/No” value is reported as “No”.
As for `O=c1cc(-c2cc(C(F)(F)F)cc(C(F)(F)F)c2)[nH]c2cc(-c3ccc(Cl)cc3)nn12` [Compound 8], the IC50 with U‐251 MG cells was 17.3 µM; in the data set on U‐251 MG cells (Homo sapiens, U-251, 120 h), under 30 µM; in the data set on HEK293 cells it was 52.4 µM; in the data set on HEK293 cells (Homo sapiens, HEK293, 120 h), over 50 µM. Further, in the data set on HEK293 cells, the “cytotoxicity / biological response” value is recorded as “did not elicit any biological response”. The “Selectivity … [µM]‐Yes/No” value in data set [1] was “Yes”.

The values above are taken from article PMC12530846, “Development of Novel Anticancer Pyrazolopyrimidinones Targeting Glioblastoma” (Chemmedchem, 2025).
